Experimental data published in patent US20260125371A1, “METHOD FOR INHIBITING CLOSTRIDIOIDES DIFFICILE SPORE GERMINATION” (UNIVERSITY OF NOTRE DAME DU LAC, priority 2022, published 2026).
In brackets after ≈: the same amount, converted by molar mass.

Tests used:
Assay type in all cases: cell-based
S. oralis ATCC 9811 = experiment: MIC against S. oralis; settings: Streptococcus oralis, ATCC9811
[1] = test system: S. epidermidis ATCC 35547; experiment: MIC against S. epidermidis; settings: Staphylococcus epidermidis, ATCC35547
B. cereus ATCC 13061 = experiment: MIC against B. cereus; settings: Bacillus cereus, ATCC13061
[2] = test system: B. licheniformis ATCC 12759; experiment: MIC against B. licheniformis; settings: Bacillus licheniformis, ATCC12759

`CCc1c(Cl)c(O)c(Cl)c(O)c1C(=O)O[C@H]1[C@H](O)[C@H](OC)[C@H](OC/C2=C\C=C\C[C@H](O)/C(C)=C/[C@H](CC)[C@@H](O[C@@H]3OC(C)(C)[C@@H](OC(=O)C(C)C)[C@H](O)[C@@H]3O)/C(C)=C/C(C)=C/C[C@@H]([C@@H](C)O)OC2=O)O[C@@H]1C` [FDX, fidaxomicin] showed an MIC (S. oralis ATCC 9811) of 32 µg/mL (≈ 30.2 µM).

With `Cc1ncc([N+](=O)[O-])n1CCO` [MTZ, metronidazole] the MIC [1] was > 128 µg/mL, the MIC (B. cereus ATCC 13061) was > 256 µg/mL and the MIC [2] was > 256 µg/mL.
